Data set [1] in a line: Correlation between biomarkers and cefmetazole pharmacokinetics in rats. As to conditions: for plasma concentrations in rats treated with PROB: PROB 60 and 120 mg/kg 7 days, cefmetazole 100 mg/kg i.v. It counts as in vivo.
Data set [2] relates to MRP4. In words: Intracellular accumulation of UTs in MRP4-overexpressing cells. It counts as cell-based, human. To be noted: 100 μM, 30 min.
Data set [3] concerns rMRP4. The class given is in vivo, rats.
Data set [4] has as its system OAT4. The data set is described as follows: Specificity: uptake in OAT4-overexpressing cells. It counts as cell-based.
Data set [5] concerns the target T1, OAT1 (Homo sapiens, UniProt Q4U2R8).
T1 sequence (Q4U2R8 1-563): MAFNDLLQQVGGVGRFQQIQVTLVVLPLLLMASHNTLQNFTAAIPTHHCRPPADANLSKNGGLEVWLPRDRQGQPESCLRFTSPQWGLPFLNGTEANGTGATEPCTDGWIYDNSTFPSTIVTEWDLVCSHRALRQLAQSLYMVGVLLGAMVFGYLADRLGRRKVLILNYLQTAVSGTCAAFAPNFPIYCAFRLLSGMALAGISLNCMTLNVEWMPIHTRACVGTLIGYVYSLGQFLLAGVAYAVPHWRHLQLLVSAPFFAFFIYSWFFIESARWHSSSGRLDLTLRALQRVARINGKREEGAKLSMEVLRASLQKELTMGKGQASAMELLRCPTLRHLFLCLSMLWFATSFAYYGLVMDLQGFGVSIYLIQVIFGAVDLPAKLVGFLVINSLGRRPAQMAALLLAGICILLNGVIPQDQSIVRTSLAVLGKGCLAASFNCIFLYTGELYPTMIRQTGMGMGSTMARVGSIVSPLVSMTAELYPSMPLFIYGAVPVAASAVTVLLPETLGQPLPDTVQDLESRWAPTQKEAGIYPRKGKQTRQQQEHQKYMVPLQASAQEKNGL
The data set is described as follows: Transport kinetics of UTs in HEK293T-OAT1 cells. It counts as cell-based.

The target in data set [6] is T1, OAT1. The data set is described as follows: Uptake of UTs in HEK293T-OAT1 cells. As to conditions: 100 μM, 30 min; for uptake of HSA-bound UT in OAT1-overexpressing cells vs control cells / uptake of free UT in OAT1-overexpressing cells vs control cells: 37 °C; for uptake of HSA-bound UT in OAT1-overexpressing cells vs control cells: with HSA; for uptake of free UT in OAT1-overexpressing cells vs control cells: without HSA. The class given is cell-based.

For data set [7], the system named is rOAT1/3. In words: rOAT1/3−/− rat experiment. It counts as in vivo, rats.
Data set [8] concerns OAT1/3 and MRP4 double-transfected MDCK cells. To be noted: 37 °C.
The subject of data set [9] is rMRP4. The class given is in vivo, rats. This is another data set of the same source.
Data set [10] has as its system rOATs. In words: rOATs inhibition experiment.
Data set [11] addresses T2, OAT3 (Homo sapiens, UniProt Q8TCC7).
T2 sequence (Q8TCC7 1-542): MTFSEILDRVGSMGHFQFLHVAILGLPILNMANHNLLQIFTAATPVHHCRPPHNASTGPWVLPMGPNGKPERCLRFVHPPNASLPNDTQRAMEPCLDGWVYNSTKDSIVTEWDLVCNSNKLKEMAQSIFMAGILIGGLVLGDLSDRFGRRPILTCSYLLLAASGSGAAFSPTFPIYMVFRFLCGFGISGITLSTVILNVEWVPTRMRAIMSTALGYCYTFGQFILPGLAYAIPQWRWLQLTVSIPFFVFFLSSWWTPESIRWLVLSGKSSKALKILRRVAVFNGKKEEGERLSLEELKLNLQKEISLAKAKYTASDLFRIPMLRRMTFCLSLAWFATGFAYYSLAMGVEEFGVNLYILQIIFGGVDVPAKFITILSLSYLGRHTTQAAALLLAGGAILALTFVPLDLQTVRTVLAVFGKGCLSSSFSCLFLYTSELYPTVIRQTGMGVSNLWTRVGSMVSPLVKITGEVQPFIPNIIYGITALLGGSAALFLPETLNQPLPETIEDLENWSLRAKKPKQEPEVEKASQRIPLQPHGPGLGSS
The data set is described as follows: Uptake of UTs in HEK293T-OAT3 cells. It counts as cell-based. To be noted: 100 μM, 30 min; for uptake of HSA-bound UT in OAT3-overexpressing cells vs control cells / uptake of free UT in OAT3-overexpressing cells vs control cells: 37 °C; for uptake of HSA-bound UT in OAT3-overexpressing cells vs control cells: with HSA; for uptake of free UT in OAT3-overexpressing cells vs control cells: without HSA.

The format of data set [12] is in vivo, rats.
Data set [13] has as its system P-gp. The data set is described as follows: Specificity: uptake in P-gp-overexpressing cells. The class given is cell-based. As to conditions: uptake in overexpressing cells vs control, 4 mM ATP.
The test system of data set [14] is MRP2. In words: Accumulation of kynurenic acid in MRP2-overexpressing cells. The class given is cell-based. To be noted: Fig. S15.
Data set [15] relates to MRP4. As to conditions: read-out: affinity (Km) for MRP4; cited from earlier work.
Data set [16] deals with MRP2. As to conditions: read-out: affinity (Km) for MRP2; cited from earlier work.
For data set [17], the target named is T2, OAT3. In words: Transport kinetics of UTs in HEK293T-OAT3 cells. The class given is cell-based. As to conditions: read-out: Km of OAT3-mediated uptake; HEK293T-OAT3, Michaelis-Menten.
Data set [18] deals with MATE1. The data set is described as follows: Specificity: uptake in MATE1-overexpressing cells. It counts as cell-based. As to conditions: uptake in overexpressing cells vs control, pH 8.0.
Data set [19] has as its system MATE2-K. In words: Specificity: uptake in MATE2-K-overexpressing cells. To be noted: uptake in overexpressing cells vs control, pH 8.0. It counts as cell-based.
Data set [20] deals with OCT2. The data set is described as follows: Specificity: uptake in OCT2-overexpressing cells. It counts as cell-based. As to conditions: uptake in overexpressing cells vs control.
In data set [21] the test system is OATP4C1. In words: Specificity: uptake in OATP4C1-overexpressing cells. It counts as cell-based. To be noted: uptake in overexpressing cells vs control.
The test system of data set [22] is OAT2. The data set is described as follows: Specificity: uptake in OAT2-overexpressing cells. To be noted: uptake in overexpressing cells vs control. It counts as cell-based.
Data set [23] relates to URAT1. In words: Specificity: uptake in URAT1-overexpressing cells. The class given is cell-based. As to conditions: uptake in overexpressing cells vs control.
Data set [24] concerns PEPT2. The data set is described as follows: Specificity: uptake in PEPT2-overexpressing cells. To be noted: uptake in overexpressing cells vs control. It counts as cell-based.
For data set [25] the following is noted: cited from earlier work.
Substrate in data set [26]: CCCc1oc(CCC(=O)O)c(C(=O)O)c1C
In words: Transport kinetics of UTs in HEK293T-OAT3 cells. It counts as cell-based, human. As to conditions: other: HEK293T-OAT3, Michaelis-Menten.

Substrate in data set [27]: O=C(O)c1cc(=O)c2ccccc2[nH]1
In words: Transport kinetics of UTs in HEK293T-OAT3 cells. To be noted: other: HEK293T-OAT3, Michaelis-Menten. It counts as cell-based, human.

Entries after “also recorded” stand apart in the source; their conditions may differ.

Broadly, the half-life is the time in which the quantity being followed falls by half. On to `O=C(O)c1cc(=O)c2ccccc2[nH]1` [Kynurenic acid, kynurenic acid], for which the “plasma concentrations in rats treated with PROB” value in data set [1] is on record as “increased”. Further, in data set [1] (WT and rOAT1/3−/− rats), the “correlation of cmax with cefmetazole” value is on record as “moderate”. The “plasma level in rOAT1/3−/− rats vs WT rats” value in [1] (rat, in vivo) is given as “markedly increased”. In addition, the “uptake at 4 °C in MRP4-overexpressing cells vs control” value in [2] is “no significant difference”. Further, the “efflux from hepatocytes into the blood after rMRP4−/−” value in data set [3] (Fig. S9) is given as “hindered”. Further, in data set [3] (rat, in vivo), the “renal clearance rate in rMRP4−/− rats vs WT” value was “did not change significantly”, the “renal tissue concentration in rMRP4−/− rats vs WT” value is reported as “unaffected” and the “serum levels in rMRP4−/− rats vs WT” value is on record as “did not change significantly”. Moreover, in data set [4], the “transport mediated by OAT4 / uptake in OAT4-overexpressing cells vs control” value is “not mediated”. Besides, the linear uptake time in data set [5] (HEK293T-OAT1/3 cells, 100 μM) was in the range of 0 to 10 min. Moreover, in [6], the “uptake at 4 °C in OAT1-overexpressing cells vs control” value is “no significant difference”, the “uptake of HSA-bound UT in OAT1-overexpressing cells vs control cells” value was “dramatically increased” and the “uptake of free UT in OAT1-overexpressing cells vs control cells” value is on record as “dramatically increased; also recorded: significantly higher”. Moreover, in data set [7] (rat, in vivo), the “renal clearance rate in rOAT1/3−/− rats vs WT” value is recorded as “significantly decreased” and the “serum levels in rOAT1/3−/− rats vs WT” value is “significantly increased”. Further, the “uptake at 37 °C in OAT3-MRP4 cells vs double control cells” value in data set [8] is “significantly increased”. In addition, the “levels in renal tissues in rats treated with MK-571 vs control” value in [9] (MK-571 5, 10, 20 mg/kg oral, 7 days) was “significantly increased”. Besides, the “serum levels in rats treated with PROB vs control” value in data set [10] (PROB 30, 60, 120 mg/kg oral, 7 days) is reported as “increased”. For the same molecule, in data set [11], the “uptake at 4 °C in OAT3-overexpressing cells vs control” value is “no significant difference”, the “uptake of HSA-bound UT in OAT3-overexpressing cells vs control cells” value is “dramatically increased” and the “uptake of free UT in OAT3-overexpressing cells vs control cells” value is listed as “dramatically increased; also recorded: significantly higher”. Further, the half-life in data set [12] (rat, urine, iv, 2 mg/kg) is 3.7 ± 0.7 h. Besides, the “rate of metabolism to (d4-)xanthurenic acid in vivo” value in data set [12] (rats, d5-kynurenic acid 2 mg/kg i.v.) was less than 12%. In [13], the “transport mediated by P-gp” value is “not mediated”. The “substrate of MRP2” value in data set [14] is “potential substrate of MRP2”.
As usually defined, the Km is the substrate concentration at which the rate is half of its maximum. Regarding `Nc1ccc(C(=O)NCC(=O)O)cc1` [aminohippuric acid], the Km in data set [15] is 160 µM; in [16], 2000 µM.
`O=C(O)CNC(=O)C=Cc1ccccc1` [N-(cinnamoyl)glycine]: the “uptake at 4 °C in MRP4-overexpressing cells vs control” value in data set [2] is on record as “not significantly different”. The “intracellular accumulation in MRP4-overexpressing cells vs control cells” value in [2] (37 °C, 4 mM ATP) is reported as “significantly decreased; also recorded: markedly reduced”. In addition, the “transport mediated by OAT4 / uptake in OAT4-overexpressing cells vs control” value in [4] is on record as “not mediated”. The Km in data set [17] is 2980 µM. Moreover, the Km in data set [5] (read-out: Km of OAT1-mediated uptake, HEK293T-OAT1, Michaelis-Menten) is 4260 µM. In addition, the “transport mediated by MATE1” value in data set [18] was “not mediated”. Further, in data set [6], the “uptake at 4 °C in OAT1-overexpressing cells vs control” value was “not significantly different”, the “uptake of HSA-bound UT in OAT1-overexpressing cells vs control cells” value is listed as “dramatically increased” and the “uptake of free UT in OAT1-overexpressing cells vs control cells” value is “dramatically increased; also recorded: significantly elevated”. For the same molecule, the “cumulative excretion, WT rats” value in data set [7] (first value of the printed pair, taken as WT, 12-h urine) was determined as 16.16 ± 5.27. Besides, the “cumulative excretion, rOAT1/3−/− rats” value in [7] (second value of the pair, taken as knockout, 12-h urine) turned out to be 8.56 ± 3.43. Further, the “cumulative urinary excretion in rats treated with MK-571 vs control” value in data set [9] (MK-571 (CMPF effect at 20 mg/kg)) is “not affected”. The “transport mediated by MATE2-K” value in data set [19] is reported as “not mediated”. Also, the “transport mediated by OCT2” value in data set [20] is listed as “not mediated”. Also, in [10] (12 h urine), the “cumulative urinary excretion in rats treated with PROB vs control” value was “no significant effects”. For the same molecule, the “serum level in vivo (detectability by LC-MS/MS)” value in data set [10] (rats / in vivo) was “below the detection limit”. In addition, the “transport mediated by OATP4C1” value in data set [21] is given as “not mediated”. Also, the “transport mediated by OAT2” value in data set [22] is listed as “not mediated”. In [11], the “uptake at 4 °C in OAT3-overexpressing cells vs control” value is reported as “not significantly different”, the “uptake of HSA-bound UT in OAT3-overexpressing cells vs control cells” value is given as “dramatically increased” and the “uptake of free UT in OAT3-overexpressing cells vs control cells” value is “dramatically increased; also recorded: significantly elevated”. The “transport mediated by URAT1” value in data set [23] is on record as “not mediated”. Further, the “transport mediated by P-gp” value in data set [13] is recorded as “not mediated”. For the same molecule, in data set [24], the “transport mediated by PEPT2” value was “not mediated”.
Take `CO[C@@]1(NC(=O)CSCC#N)C(=O)N2C(C(=O)O)=C(CSc3nnnn3C)CS[C@@H]21` [cefmetazole, reference compound]: the “plasma concentrations in rats treated with PROB” value in data set [1] is given as “increased”. Besides, the “cmax in WT rats given 100 mg/kg vs KO rats given 60 mg/kg” value in data set [1] (i.p., 7 consecutive days) was “close to”. The renal tubular secretion entry in [25] is “about 40%”.

B1: OAT3 (Homo sapiens) (protein)
chain: T2 sequence (Q8TCC7 1-542)
Take B1: the results for the Km in data set [26] and in data set [27] were 447.1 µM and 382.2 µM, respectively. In addition, the Vmax in data set [26] turned out to be 133.2 pmol/mg protein/min.

(Values after article PMC10657973 (Journal of Pharmaceutical Analysis, 2023).)
